Test results: PMC9029360, “Cyclooxygenase-Inhibiting Platinum(IV) Prodrugs with Potent Anticancer Activity” (Pharmaceutics, 2022)
Where two headings read alike, the source gives them in different places.

Legend:
[1] = system: H460 lung; experiment: In vitro cytotoxicity MTT assay, H460 lung; assay type: cell-based; details: n = 3
[2] = system: MIA pancreas; experiment: In vitro cytotoxicity MTT assay, MIA pancreas; assay type: cell-based; details: 72 h drug exposure, n = 3
[3] = system: HT29 colon cancer cell line; experiment: In vitro cytotoxicity MTT assay, HT29 colon; assay type: cell-based; details: n = 3
[4] = system: A431 skin; experiment: In vitro cytotoxicity MTT assay, A431 skin; assay type: cell-based; details: n = 3
[5] = system: MCF-7 breast; experiment: In vitro cytotoxicity MTT assay, MCF-7 breast; assay type: cell-based; details: n = 3
[6] = system: U87 glioblastoma; experiment: In vitro cytotoxicity MTT assay, U87 glioblastoma; assay type: cell-based; details: 72 h drug exposure, n = 3
[7] = system: A2780 ovarian; experiment: In vitro cytotoxicity MTT assay, A2780 ovarian; assay type: cell-based; details: 72 h drug exposure, n = 3
[8] = system: MCF10A breast cell line (non-tumour derived); experiment: In vitro cytotoxicity MTT assay, non-tumour MCF10A breast; assay type: cell-based; details: MCF10A (non-cancerous), 72 h drug exposure, n = 3
[9] = system: cisplatin-resistant ADDP ovarian (subclone of A2780 cell line); experiment: In vitro cytotoxicity MTT assay, cisplatin-resistant ADDP ovarian; assay type: cell-based; details: ADDP (cisplatin-resistant), MTT, 72 h drug exposure, n = 3
[10] = system: SJ-G2 glioblastoma; experiment: In vitro cytotoxicity MTT assay, SJ-G2 glioblastoma; assay type: cell-based; details: 72 h drug exposure, n = 3
[11] = system: BE2-C neuroblastoma; experiment: In vitro cytotoxicity MTT assay, BE2-C neuroblastoma; assay type: cell-based; details: 72 h drug exposure, n = 3
[12] = system: Du145 prostate cancer cell line; experiment: In vitro cytotoxicity MTT assay, Du145 prostate; assay type: cell-based; details: n = 3
[13] = system: BE2-C neuroblastoma; details: MTT, 72 h, cited from earlier work
[14] = system: A431 skin; details: MTT, 72 h, cited from earlier work
[15] = system: A2780 ovarian; details: MTT, 72 h, cited from earlier work
[16] = system: SJ-G2 glioblastoma; details: MTT, 72 h, cited from earlier work
[17] = system: Du145 prostate cancer cell line; details: MTT, 72 h, cited from earlier work
[18] = system: cisplatin-resistant ADDP ovarian (subclone of A2780 cell line); details: MTT, 72 h, ref [2] Macias et al., Eur. J. Chem. 2015; cited from earlier work
[19] = system: MCF-7 breast; details: MTT, 72 h, cited from earlier work
[20] = system: H460 lung; details: MTT, 72 h, cited from earlier work
[21] = system: HT29 colon cancer cell line; details: MTT, 72 h, cited from earlier work
[22] = system: MIA pancreas; details: MTT, 72 h, cited from earlier work
[23] = system: U87 glioblastoma; details: MTT, 72 h, cited from earlier work
[24] = system: MCF10A breast cell line (non-tumour derived); details: MTT, 72 h, cited from earlier work
[25] = Lipophilicity by RP-HPLC (log kw); assay type: physicochemical; details: capacity factor extrapolated to 100% water
Procedure: HPLC experiments were executed on an Agilent (Melbourne, Australia) Technologies 1260 Infinity instrument equipped with a Phenomenex (Sydney, Australia) Onyx^TM Monolithic C18 reverse phase column (100 × 4.6 mm, 130 Å). The mobile phase was comprised of 0.06% TFA in water (solvent A) and 0.06% TFA in an acetonitrile-water mixture (9:1) (solvent B). A sample injection volume of 10 µL was used at a flow rate of 1 mL/min and eluted over a gradient of 0–100% for 15 min. A PDA was used to detect the eluting peaks at 254 nm. Lipophilicity experiments to determine logkw values were undertaken following previously published methods. Rather than a gradient, different isocratic ratios ranging from 28–56% of solvent B were employed and the retention times measured for each complex. Potassium iodide was used as an external dead volume marker to determine the dead time of the column. The following equation was used to calculate the capacity factors:(1) k=tr−t0/t0 where k is the capacity factor, tr is the retention time of the analyte, and t0 is the dead time. Following this, log k was plotted against the percentage of ACN. Five different concentrations of ACN were used to produce a linear plot comprised of R^2 > 0.99. This graph produced the following equation:(2) logk=Sφ+logkw where S is the slope, φ is the % ACN, and the y-intercept, represented as logkw , is the capacity factor of the compound in 100% water.
Lipophilicity studies were carried out to determine the logkw of each complex. This was ascertained through a RP-HPLC based approach whereby complexes were eluted at several isocratic ratios. In turn, retention times were employed as in Equation (1), where the capacity factor (k) was calculated. The log k value at each ratio was then plotted against the percentage of the organic solvent used in solvent B, producing a linear equation that allowed for logkw to be extrapolated (Figure S43). The logkw value represents the retention factor in a 100% aqueous solution; thus, higher values indicate more lipophilic compounds. While this method for determining lipophilicity is slightly different from the shake-flask method, it has been used previously to compare a series of complexes that are structurally similar and is fitting for this group of complexes.

[26] = ref [2] Macias et al., Eur. J. Chem. 2015
[27] = ref [1] Deo et al., Dalton Trans. 2019

| Compound | GI50 ([1]; 72 h drug exposure) [nM] | GI50 [2] [nM] | GI50 ([3]; 72 h drug exposure) [nM] | GI50 ([4]; 72 h drug exposure) [nM] | GI50 ([5]; 72 h drug exposure) [nM] | GI50 [6] [nM] | GI50 [7] [nM] | GI50 [8] [nM] | GI50 [9] [nM] | GI50 [10] [nM] | GI50 [11] [nM] | GI50 ([12]; 72 h drug exposure) [nM] | Log kw [25] | other results |
| --- | --- | --- | --- | --- | --- | --- | --- | --- | --- | --- | --- | --- | --- | --- |
| Cc1c(C)c2cccnc2c2ncccc12.N[C@H]1CCCC[C@@H]1N.[Cl-].[Cl-].[Pt+2] [56MESS(II)] | 28 ± 4.7 | 22 | 15 ± 6.2 | 36 ± 11 | 33 ± 12 | 76 ± 8.7 | 39 ± 7.7 | 25 ± 10 | 27 ± 4.1 | 150 | 86 ± 3 | 10 ± 1.3 | – | – |
| Cc1c(C)c2cccnc2c2ncccc12.N[C@H]1CCCC[C@@H]1N.O=[N+]([O-])[O-].O=[N+]([O-])[O-].[OH-].[OH-].[Pt+4] [56MESS(IV)] | 190 ± 150 | 43 ± 2.5 | 36 ± 7 | 120 ± 22 | 480 ± 140 | 190 ± 23 | 56 ± 7.1 | 61 ± 7.3 | 170 ± 120 | 210 ± 45 | 240 ± 22 | 15 ± 2.6 | – | – |
| N.N.O=C([O-])C1(C(=O)[O-])CCC1.[Pt+2] [Carboplatin, carboplatin] | – | – | – | – | – | – | – | – | – | – | – | – | – | GI50 [13, 26]: 18700 nM; GI50 [14, 26]: 24300 nM; GI50 [15, 26]: 9200 ± 2900 nM; GI50 [16, 26]: 5700 nM; GI50 [17, 26]: 14700 nM; GI50 [18]: > 50000 nM; GI50 [19, 26]: > 50000 nM; GI50 [20, 26]: 14000 ± 1000 nM; GI50 [21, 26]: > 50000 nM; GI50 [22, 26]: > 50000 nM; GI50 [23, 26]: > 50000 nM; GI50 [24, 26]: > 50000 nM |
| COc1ccc2c(c1)c(CC(=O)O)c(C)n2C(=O)c1ccc(Cl)cc1 [Indomethacin, indomethacin] | – | > 50000 | – | – | – | > 50000 | – | – | – | > 50000 | – | – | – | GI50 ([1]; Homo sapiens, NCI-H460, 72 h drug exposure): > 50000 nM; GI50 ([3]; Homo sapiens, HT-29, 72 h drug exposure): > 50000 nM; GI50 ([4]; Homo sapiens, A-431, 72 h drug exposure): > 50000 nM; GI50 ([5]; Homo sapiens, MCF7, 72 h drug exposure): > 50000 nM; GI50 ([7]; Homo sapiens): 5700 ± 800 nM; GI50 ([8]; Homo sapiens, MCF-10A): > 50000 nM; GI50 ([9]; Homo sapiens, A2780): > 50000 nM; GI50 ([11]; Homo sapiens, BE(2)-C): > 50000 nM; GI50 ([12]; Homo sapiens, DU-145, 72 h drug exposure): > 50000 nM |
| O=C1[O][Pt]2([NH][C@@H]3CCCC[C@H]3[NH]2)[O]C1=O [Oxaliplatin, oxaliplatin] | – | – | – | – | – | – | – | – | – | – | – | – | – | GI50 [13, 26]: 900 ± 200 nM; GI50 [14, 26]: 4100 ± 500 nM; GI50 [15, 26]: 160 nM; GI50 [16, 26]: 3000 ± 1200 nM; GI50 [17, 26]: 2900 ± 400 nM; GI50 [18]: 822 ± 130 nM; GI50 [19, 26]: 500 ± 100 nM; GI50 [20, 26]: 1600 ± 100 nM; GI50 [21, 26]: 900 ± 200 nM; GI50 [22, 26]: 900 nM; GI50 [23, 26]: 1800 ± 200 nM |
| N[C@H]1CCCC[C@@H]1N.[Cl-].[Cl-].[Pt+2].c1cnc2c(c1)ccc1cccnc12 [PHENSS(II)] | 300 ± 32 | 240 ± 22 | 87 ± 27 | 340 ± 100 | 250 ± 41 | 1200 ± 340 | 290 ± 37 | 240 ± 60 | 230 ± 49 | 440 ± 55 | 390 ± 60 | 110 ± 27 | – | – |
| N[C@H]1CCCC[C@@H]1N.O=[N+]([O-])[O-].O=[N+]([O-])[O-].[OH-].[OH-].[Pt+4].c1cnc2c(c1)ccc1cccnc12 [PHENSS(IV)] | – | – | – | – | – | – | – | – | – | – | – | – | – | GI50 [13, 27]: 3000 ± 530 nM; GI50 [14, 27]: 4300 ± 530 nM; GI50 [15, 27]: 800 ± 84 nM; GI50 [16, 27]: 1700 nM; GI50 [17, 27]: 310 ± 92 nM; GI50 [19, 27]: 16000 nM; GI50 [20, 27]: 1700 ± 200 nM; GI50 [21, 27]: 710 ± 300 nM; GI50 [22, 27]: 3400 nM; GI50 [23, 27]: 4900 ± 610 nM; GI50 [24, 27]: 1700 nM |
| COc1ccc2c(c1)c(CC(=O)[O][Pt-2]13([OH])([NH2+]C4CCCCC4[NH2+]1)[n+]1cccc4ccc5ccc[n+]3c5c41)c(C)n2C(=O)c1ccc(Cl)cc1.O=[N+]([O-])[O-].O=[N+]([O-])[O-] (centres unmarked) [compound 1, [Pt(Phen)(SSDACH)(Indomethacin)(OH)](NO3)2] | 370 ± 55 | 330 | 83 ± 40 | 400 ± 84 | 740 ± 230 | – | 390 ± 87 | 340 ± 100 | 350 ± 81 | 970 ± 290 | – | 160 ± 54 | 1.08 | – |
| COc1ccc2c(c1)c(CC(=O)[O][Pt-2]13([OH])([NH2+]C4CCCCC4[NH2+]1)[n+]1cccc4c(C)c(C)c5ccc[n+]3c5c41)c(C)n2C(=O)c1ccc(Cl)cc1.O=[N+]([O-])[O-].O=[N+]([O-])[O-] (centres unmarked) [compound 2, [Pt(56Me2Phen)(SSDACH)(Indomethacin)(OH)](NO3)2] | 22 ± 4.2 | 21 ± 2 | 13 ± 3.6 | 40 ± 14 | 37 ± 2.3 | 47 ± 4.9 | 34 ± 8.6 | 23 ± 8.2 | 24 ± 6.1 | 170 ± 19 | 130 ± 41 | 7.5 ± 3.6 | 1.28 | – |
| CC(=O)Oc1ccccc1C(=O)[O-].Cc1c(C)c2cccnc2c2ncccc12.N[C@H]1CCCC[C@@H]1N.O=[N+]([O-])[O-].O=[N+]([O-])[O-].[OH-].[Pt+4] [compound 4, [Pt(56Me2Phen)(SSDACH)(Aspirin)(OH)](NO3)2] | 15 ± 1 | 8 ± 1 | 7 ± 1 | 31 | 36 ± 10 | 24 | 22 | 9 ± 2 | 12 | 63 ± 6 | 98 ± 21 | 3 | 0.65 | – |
